As usually defined, the EC50 is the concentration at which the effect is half-maximal. A higher EC50 goes with a less potent agent.

Consider seven compounds from patent US20260001928A1 (CORTERIA PHARMACEUTICALS, priority 2022, published 2026).

The assay has as its system human LAD2 cells. Type of assay: cell-based. Summed up:
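Mast cell degranulation: cells exposed to peptides for 30 min at final concentrations from 50, 100 or 300 down to 0.1 or 0.001 μM, with 0.5% DMSO where used, in biological duplicates. β-hexosaminidase release was read with a fluorogenic 4-methylumbelliferyl substrate as supernatant/(supernatant + Triton-lysed pellet) × 100. EC50 came from a 4-parameter sigmoidal fit.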

*1 amine or outer side, *2 acyl side, *3 side chain or, on linkers, in order; H or OH if unused. Where a SMILES comes first, the peptide text is derived from it. Side-chain parts run from the residue outwards. [ ]: non-standard residue; d: D form. The star is where a group is joined. C20 diacid = O=C(O)CCCCCCCCCCCCCCCCCCC(=O)*; γGlu = O=C(O)[C@H](CCC(=O)[*:2])N[*:1]; NMeI = CC[C@H](C)[C@H](NC)C(=O)O; Decanoyl = CCCCCCCCCC(=O)*; Pentanoyl = CCCCC(=O)*; AEEA = NCCOCCOCC(=O)O; Aib = CC(C)(N)C(=O)O

Compound `CCCCC(=O)N[C@H](C(=O)N[C@@H](CC(C)C)C(=O)N[C@@H](CO)C(=O)N[C@@H](CC(C)C)C(=O)N[C@@H](CC(=O)O)C(=O)N[C@@H](C(=O)N1CCC[C@H]1C(=O)N[C@H](C(=O)N[C@@H](CCCCN)C(=O)N[C@@H](CC(C)C)C(=O)N[C@@H](CCCCNC(=O)CC[C@H](NC(=O)CCCCCCCCCCCCCCCCCCC(=O)O)C(=O)O)C(=O)N[C@@H](CCCCN)C(=O)N[C@H](C(=O)N[C@@H](CC(C)C)C(=O)N[C@@H](CC(C)C)C(=O)N[C@@H](CCC(=O)O)C(=O)N[C@@H](CCC(N)=O)C(=O)N[C@@H](CCC(=O)O)C(=O)N[C@@H](CCCCN)C(=O)N[C@@H](CCC(N)=O)C(=O)N[C@@H](CCCCN)C(=O)N[C@@H](CCCCN)C(=O)N[C@@H](CCC(N)=O)C(=O)N[C@@H](CCCNC(=N)N)C(=O)N[C@@H](CCC(=O)O)C(=O)N[C@@H](CCC(N)=O)C(=O)N[C@@H](C)C(=O)N[C@@H](CCC(=O)O)C(=O)N[C@H](C(=O)N[C@@H](CC(N)=O)C(=O)NC(C)(C)C(=O)N[C@@H](CCC(N)=O)C(=O)N[C@H](C(=O)N[C@@H](CC(C)C)C(=O)N[C@@H](C)C(=O)N[C@@H](CCC(N)=O)C(=O)N[C@H](C(N)=O)C(C)C)[C@@H](C)CC)[C@@H](C)O)[C@@H](C)CC)[C@@H](C)CC)C(C)C)C(C)C` [Cmpd 219] (Pentanoyl-VLSLD[dV]PIKLK([γGlu-C20 diacid])KILLEQEKQKKQREQAETN[Aib]QILAQV-NH2) gave an EC50 of 88.2 µM.

As for `CCCCCCCCCC(=O)N[C@H](C(=O)N[C@@H](CC(C)C)C(=O)N[C@@H](CO)C(=O)N[C@@H](CC(C)C)C(=O)N[C@@H](CC(=O)O)C(=O)N[C@@H](C(=O)N1CCC[C@H]1C(=O)N[C@H](C(=O)N[C@@H](CCCCN)C(=O)N[C@@H](CC(C)C)C(=O)N[C@@H](CCCCNC(=O)CC[C@H](NC(=O)CCCCCCCCCCCCCCCCCCC(=O)O)C(=O)O)C(=O)N[C@@H](CCCCN)C(=O)N[C@H](C(=O)N[C@@H](CC(C)C)C(=O)N[C@@H](CC(C)C)C(=O)N[C@@H](CCC(=O)O)C(=O)N[C@@H](CCC(N)=O)C(=O)N[C@@H](CCC(=O)O)C(=O)N[C@@H](CCCCN)C(=O)N[C@@H](CCC(N)=O)C(=O)N[C@@H](CCCCN)C(=O)N[C@@H](CCCCN)C(=O)N[C@@H](CCC(N)=O)C(=O)N[C@@H](CCCNC(=N)N)C(=O)N[C@@H](CCC(=O)O)C(=O)N[C@@H](CCC(N)=O)C(=O)N[C@@H](C)C(=O)N[C@@H](CCC(=O)O)C(=O)N[C@H](C(=O)N[C@@H](CC(N)=O)C(=O)NC(C)(C)C(=O)N[C@@H](CCC(N)=O)C(=O)N[C@H](C(=O)N[C@@H](CC(C)C)C(=O)N[C@@H](C)C(=O)N[C@@H](CCC(N)=O)C(=O)N[C@H](C(N)=O)C(C)C)[C@@H](C)CC)[C@@H](C)O)[C@@H](C)CC)[C@@H](C)CC)C(C)C)C(C)C` [Cmpd 223] (Decanoyl-VLSLD[dV]PIKLK([γGlu-C20 diacid])KILLEQEKQKKQREQAETN[Aib]QILAQV-NH2), the EC50 is more than 300 µM.

Compound `CC[C@H](C)[C@H](NC(C)=O)C(=O)N[C@H](C(=O)N[C@@H](CC(C)C)C(=O)N[C@@H](CO)C(=O)N[C@@H](CC(C)C)C(=O)N[C@@H](CC(=O)O)C(=O)N[C@@H](C(=O)N1CCC[C@H]1C(=O)N[C@H](C(=O)N[C@@H](CCCCN)C(=O)N[C@@H](CC(C)C)C(=O)N[C@@H](CCCCNC(=O)COCCOCCNC(=O)CC[C@H](NC(=O)CCCCCCCCCCCCCCCCCCC(=O)O)C(=O)O)C(=O)N[C@@H](CCCCN)C(=O)N[C@H](C(=O)N[C@@H](CC(C)C)C(=O)N[C@@H](CC(C)C)C(=O)N[C@@H](CCC(=O)O)C(=O)N[C@@H](CCC(N)=O)C(=O)N[C@@H](CCC(=O)O)C(=O)N[C@@H](CCCCN)C(=O)N[C@@H](CCC(N)=O)C(=O)N[C@@H](CCCCN)C(=O)N[C@@H](CCC(=O)O)C(=O)N[C@@H](CCC(N)=O)C(=O)N[C@@H](CCCNC(=N)N)C(=O)N[C@@H](CCC(=O)O)C(=O)N[C@@H](CCC(N)=O)C(=O)N[C@@H](C)C(=O)N[C@@H](CCC(=O)O)C(=O)N[C@H](C(=O)N[C@@H](CC(N)=O)C(=O)NC(C)(C)C(=O)N[C@@H](CCC(N)=O)C(=O)N[C@H](C(=O)N[C@@H](CC(C)C)C(=O)N[C@@H](C)C(=O)N[C@@H](CCC(N)=O)C(=O)N[C@H](C(N)=O)C(C)C)[C@@H](C)CC)[C@@H](C)O)[C@@H](C)CC)[C@@H](C)CC)C(C)C)C(C)C` [Cmpd 231] (Ac-IVLSLD[dV]PIKLK([AEEA-γGlu-C20 diacid])KILLEQEKQKEQREQAETN[Aib]QILAQV-NH2) returned a concentration for a half-maximal effect (EC50) of 47.5 µM.

For the compound `CC[C@H](C)[C@H](NC)C(=O)N[C@H](C(=O)N[C@@H](CC(C)C)C(=O)N[C@@H](CO)C(=O)N[C@@H](CC(C)C)C(=O)N[C@@H](CC(=O)O)C(=O)N[C@@H](C(=O)N1CCC[C@H]1C(=O)N[C@H](C(=O)N[C@@H](CCCCN)C(=O)N[C@@H](CC(C)C)C(=O)N[C@@H](CCCCNC(=O)COCCOCCNC(=O)CC[C@H](NC(=O)CCCCCCCCCCCCCCCCCCC(=O)O)C(=O)O)C(=O)N[C@@H](CCCCN)C(=O)N[C@H](C(=O)N[C@@H](CC(C)C)C(=O)N[C@@H](CC(C)C)C(=O)N[C@@H](CCC(=O)O)C(=O)N[C@@H](CCC(N)=O)C(=O)N[C@@H](CCC(=O)O)C(=O)N[C@@H](CCCCN)C(=O)N[C@@H](CCC(N)=O)C(=O)N[C@@H](CCCCN)C(=O)N[C@@H](CCC(=O)O)C(=O)N[C@@H](CCC(N)=O)C(=O)N[C@@H](CCCNC(=N)N)C(=O)N[C@@H](CCC(=O)O)C(=O)N[C@@H](CCC(N)=O)C(=O)N[C@@H](C)C(=O)N[C@@H](CCC(=O)O)C(=O)N[C@H](C(=O)N[C@@H](CC(N)=O)C(=O)NC(C)(C)C(=O)N[C@@H](CCC(N)=O)C(=O)N[C@H](C(=O)N[C@@H](CC(C)C)C(=O)N[C@@H](C)C(=O)N[C@@H](CCC(N)=O)C(=O)N[C@H](C(N)=O)C(C)C)[C@@H](C)CC)[C@@H](C)O)[C@@H](C)CC)[C@@H](C)CC)C(C)C)C(C)C` [Cmpd 233] (H-[NMeI]VLSLD[dV]PIKLK([AEEA-γGlu-C20 diacid])KILLEQEKQKEQREQAETN[Aib]QILAQV-NH2), the EC50 was more than 300 µM.

`CC[C@H](C)[C@H](NC)C(=O)N[C@H](C(=O)N[C@@H](CC(C)C)C(=O)N[C@@H](CO)C(=O)N[C@@H](CC(C)C)C(=O)N[C@@H](CC(=O)O)C(=O)N[C@@H](C(=O)N1CCC[C@H]1C(=O)N[C@H](C(=O)N[C@@H](CCCCN)C(=O)N[C@@H](CC(C)C)C(=O)N[C@@H](CCCCNC(=O)COCCOCCNC(=O)CC[C@H](NC(=O)CCCCCCCCCCCCCCCCCCC(=O)O)C(=O)O)C(=O)N[C@@H](CCCCN)C(=O)N[C@H](C(=O)N[C@@H](CC(C)C)C(=O)N[C@@H](CC(C)C)C(=O)N[C@@H](CCC(=O)O)C(=O)N[C@@H](CCC(N)=O)C(=O)N[C@@H](CCC(=O)O)C(=O)N[C@@H](CCCCN)C(=O)N[C@@H](CCC(N)=O)C(=O)N[C@@H](CCCCN)C(=O)NC(C)(C)C(=O)N[C@@H](CCC(N)=O)C(=O)N[C@@H](CCCNC(=N)N)C(=O)N[C@@H](CCC(=O)O)C(=O)N[C@@H](CCC(N)=O)C(=O)N[C@@H](C)C(=O)N[C@@H](CCC(=O)O)C(=O)N[C@H](C(=O)N[C@@H](CC(N)=O)C(=O)NC(C)(C)C(=O)N[C@@H](CCC(N)=O)C(=O)N[C@H](C(=O)N[C@@H](CC(C)C)C(=O)N[C@@H](C)C(=O)N[C@@H](CCC(N)=O)C(=O)N[C@H](C(N)=O)C(C)C)[C@@H](C)CC)[C@@H](C)O)[C@@H](C)CC)[C@@H](C)CC)C(C)C)C(C)C` [Cmpd 234] (H-[NMeI]VLSLD[dV]PIKLK([AEEA-γGlu-C20 diacid])KILLEQEKQK[Aib]QREQAETN[Aib]QILAQV-NH2) gave an EC50 of 49.2 µM.

Compound `CC[C@H](C)[C@H](NC(C)=O)C(=O)N[C@H](C(=O)N[C@@H](CC(C)C)C(=O)N[C@@H](CO)C(=O)N[C@@H](CC(C)C)C(=O)N[C@@H](CC(=O)O)C(=O)N[C@@H](C(=O)N1CCC[C@H]1C(=O)N[C@H](C(=O)N[C@@H](CCCCN)C(=O)N[C@@H](CC(C)C)C(=O)N[C@@H](CCCCNC(=O)COCCOCCNC(=O)COCCOCCNC(=O)CC[C@H](NC(=O)CCCCCCCCCCCCCCCCCCC(=O)O)C(=O)O)C(=O)N[C@@H](CCCCN)C(=O)N[C@H](C(=O)N[C@@H](CC(C)C)C(=O)N[C@@H](CC(C)C)C(=O)N[C@@H](CCC(=O)O)C(=O)N[C@@H](CCC(N)=O)C(=O)N[C@@H](CCC(=O)O)C(=O)N[C@@H](CCCCN)C(=O)N[C@@H](CCC(N)=O)C(=O)N[C@@H](CCCCN)C(=O)N[C@@H](CCC(=O)O)C(=O)N[C@@H](CCC(N)=O)C(=O)N[C@@H](CCCNC(=N)N)C(=O)N[C@@H](CCC(=O)O)C(=O)N[C@@H](CCC(N)=O)C(=O)N[C@@H](C)C(=O)N[C@@H](CCC(=O)O)C(=O)N[C@H](C(=O)N[C@@H](CC(N)=O)C(=O)NC(C)(C)C(=O)N[C@@H](CCC(N)=O)C(=O)N[C@H](C(=O)N[C@@H](CC(C)C)C(=O)N[C@@H](C)C(=O)N[C@@H](CCC(N)=O)C(=O)N[C@H](C(N)=O)C(C)C)[C@@H](C)CC)[C@@H](C)O)[C@@H](C)CC)[C@@H](C)CC)C(C)C)C(C)C` [Cmpd 236] (Ac-IVLSLD[dV]PIKLK([AEEA-AEEA-γGlu-C20 diacid])KILLEQEKQKEQREQAETN[Aib]QILAQV-NH2) displayed an EC50 of 74.1 µM.

Take `CC[C@H](C)[C@H](NC)C(=O)N[C@H](C(=O)N[C@@H](CC(C)C)C(=O)N[C@@H](CO)C(=O)N[C@@H](CC(C)C)C(=O)N[C@@H](CC(=O)O)C(=O)N[C@@H](C(=O)N1CCC[C@H]1C(=O)N[C@H](C(=O)N[C@@H](CCCCN)C(=O)N[C@@H](CC(C)C)C(=O)N[C@@H](CCCCNC(=O)COCCOCCNC(=O)COCCOCCNC(=O)CC[C@H](NC(=O)CCCCCCCCCCCCCCCCCCC(=O)O)C(=O)O)C(=O)N[C@@H](CCCCN)C(=O)N[C@H](C(=O)N[C@@H](CC(C)C)C(=O)N[C@@H](CC(C)C)C(=O)N[C@@H](CCC(=O)O)C(=O)N[C@@H](CCC(N)=O)C(=O)N[C@@H](CCC(=O)O)C(=O)N[C@@H](CCCCN)C(=O)N[C@@H](CCC(N)=O)C(=O)N[C@@H](CCCCN)C(=O)N[C@@H](CCC(=O)O)C(=O)N[C@@H](CCC(N)=O)C(=O)N[C@@H](CCCNC(=N)N)C(=O)N[C@@H](CCC(=O)O)C(=O)N[C@@H](CCC(N)=O)C(=O)N[C@@H](C)C(=O)N[C@@H](CCC(=O)O)C(=O)N[C@H](C(=O)N[C@@H](CC(N)=O)C(=O)NC(C)(C)C(=O)N[C@@H](CCC(N)=O)C(=O)N[C@H](C(=O)N[C@@H](CC(C)C)C(=O)N[C@@H](C)C(=O)N[C@@H](CCC(N)=O)C(=O)N[C@H](C(N)=O)C(C)C)[C@@H](C)CC)[C@@H](C)O)[C@@H](C)CC)[C@@H](C)CC)C(C)C)C(C)C` [Cmpd 237] (H-[NMeI]VLSLD[dV]PIKLK([AEEA-AEEA-γGlu-C20 diacid])KILLEQEKQKEQREQAETN[Aib]QILAQV-NH2): the EC50 was more than 300 µM.
